Article PMC7556730 (Chemico-biological interactions, 2020)
Several values for one entry are separate records, joined by “and”; a condition that tells them apart may be missing. Equal entries are not always repeated. Marks after values point to notes of the source that are not given here.

Legend:
microsomal CESs = assay: Microsomal inhibition study with the CES inhibitor benzil; assay type: in vitro ADME, Sprague Dawley rats
cytosolic GSTs = assay: Cytosolic inhibition study with the GST inhibitor ethacrynic acid; assay type: in vitro ADME, Sprague Dawley rats; settings: for benoxacor depletion in control incubations: ethacrynic acid controls; for percent of benoxacor remaining: 5 minutes
[1] = test system: glutathione S-transferases (GSTs); assay: Cytosolic incubations with benoxacor in the presence of GSH; assay type: in vitro ADME, Sprague Dawley rats; settings: Sprague-Dawley, rat, liver cytosol
[2] = test system: glutathione S-transferases (GSTs) in rat liver cytosol; assay: as above; assay type: in vitro ADME, Sprague Dawley rats; settings: for percentage of benoxacor remaining: 1 mg/mL protein, 5 mM GSH, 5 μM benoxacor
[3] = cited from earlier work
[4] = test system: hepatic cytochrome P450 enzymes (CYPs) in rat liver microsomes; assay: Microsomal incubations with benoxacor in the presence of NADPH; assay type: in vitro ADME, Sprague Dawley rats; settings: for percentage of benoxacor remaining: 0.1 mg/mL protein, 0.5 mM NADPH, 5 μM benoxacor
[5] = test system: cytochrome P450 enzymes (CYPs); assay: as above; assay type: in vitro ADME, Sprague Dawley rats; settings: Sprague-Dawley, rat, liver microsomes
[6] = test system: microsomal carboxylesterases (CESs) in rat liver microsomes; assay: Incubations of active microsomes without NADPH; assay type: in vitro ADME, Sprague Dawley rats
[7] = test system: microsomal carboxylesterases (CESs); assay: Incubations of active microsomes without NADPH; assay type: in vitro ADME, Sprague Dawley rats; settings: male, Sprague-Dawley, rat, liver microsomes

Structure (SMILES): CC1COc2ccccc2N1C(=O)C(Cl)Cl (stereo not shown) [benoxacor, Benoxacor]
- benoxacor depletion in control incubations (microsomal CESs; benzil controls, 5, 50 and 500 nM): 100±1%
- depletion of benoxacor in the presence of benzil (microsomal CESs; male rat liver microsomes without NADPH, 30 minutes, benzil 5 to 500 nM): not depleted
- percent of benoxacor remaining (microsomal CESs; male rat liver microsomes without NADPH, 30 minutes, without benzil): 92±2%
- benoxacor depletion in control incubations (cytosolic GSTs; 10 μM): 100±1%
- benoxacor depletion in control incubations (cytosolic GSTs; 100 μM): 102±1%
- benoxacor depletion in control incubations (cytosolic GSTs; 1000 μM): 100±1%
- percent of benoxacor remaining (cytosolic GSTs; female rat cytosol with GSH, 1000 μM ethacrynic acid): 98±2%
- percent of benoxacor remaining (cytosolic GSTs; female rat cytosol with GSH, without inhibitor): 71±3%
- percent of benoxacor remaining (cytosolic GSTs; male rat preparations with GSH, with ethacrynic acid): 96±2%
- percent of benoxacor remaining (cytosolic GSTs; male rat preparations with GSH, without inhibitor): 64±1%
- microsomal CLint ([1]; female): 280 µL/min/mg
- microsomal CLint ([1]; male): 440 µL/min/mg
- enantiomeric fraction (EF) ([2]; female rat liver cytosol with GSH, 30 minutes): 0.54±0.01
- enantiomeric fraction (EF) ([2]; female rat liver cytosol with GSH, start of 30-minute time-course): 0.48
- percentage of benoxacor remaining ([2]; female rat liver cytosol, 30 minutes): 18±2%
- GST Scaled CLint ([2]; female rat, significantly different from male (p = 0.0038)): 25.87^a mL/min/g liver
- GST Scaled CLint ([2]; male rat): 40.18 mL/min/g liver
- enantiomeric fraction (EF) ([2]; male rat liver cytosol with GSH, 30 minutes): 0.43±0.01 and 0.43
- enantiomeric fraction (EF) ([2]; male rat liver cytosol with GSH, start of 30-minute time-course): 0.47
- percentage of benoxacor remaining ([2]; male rat liver cytosol, 30 minutes): 9±2%
- experimental solubility [3]: 22 ± 1.7 mg/L
- CYP Scaled CLint ([4]; female rat): 57.80 mL/min/g liver
- enantiomeric fraction (EF = A1/(A1+A2)) ([4]; female rat liver microsomes with NADPH, 30 minutes): 0.67±0.01 and 0.67
- enantiomeric fraction (EF = A1/(A1+A2)) ([4]; female rat liver microsomes with NADPH, start of 30-minute time-course): 0.48
- percentage of benoxacor remaining ([4]; female rat liver microsomes, 30 minutes): 48±1%
- CYP Scaled CLint ([4]; male rat): 50.13 mL/min/g liver
- enantiomeric fraction (EF = A1/(A1+A2)) ([4]; male rat liver microsomes with NADPH, 30 minutes): 0.60±0.01 and 0.60
- enantiomeric fraction (EF = A1/(A1+A2)) ([4]; male rat liver microsomes with NADPH, start of 30-minute time-course): 0.48
- percentage of benoxacor remaining ([4]; male rat liver microsomes, 30 minutes): 45±1%
- microsomal CLint ([5]; female): 1280 µL/min/mg
- microsomal CLint ([5]; male): 1110 µL/min/mg
- enantiomeric fraction (EF) ([6]; active female rat microsomes without NADPH, 30 minutes): 0.47
- enantiomeric fraction (EF) ([6]; active female rat microsomes without NADPH, initial value): 0.48
- enantiomeric fraction (EF) ([6]; active male rat microsomes without NADPH, initial value): 0.48
- CES Scaled CLint ([6]; male rat): 6.74 mL/min/g liver
- microsomal CLint [7]: 150 µL/min/mg

Structure (SMILES): O=C(C(=O)c1ccccc1)c1ccccc1 [benzil, Benzil, reference compound]
- inhibition of the loss of benoxacor by the CES inhibitor (microsomal CESs; male rat liver microsomes without NADPH, 30 minutes, 5, 50, 500 nM): significantly inhibited
